{
  "source": "patent US20030125269A1",
  "about": "“T-TYPE CALCIUM CHANNEL” (priority 1998, published 2003)",
  "key": {"[1]": {"tested_on": "L-type Ca^2+ current", "test": "Patch clamp recording (whole-cell and perforated patch) of L-type Ca^2+ current in insulin-secreting (INS-1) cells", "type": "cell-based, rat", "conditions": "1 μM in the pipette solution, whole-cell, 5 min after patch formation", "procedure": "(§1) Cell Culture—INS-1 cells were cultured in RPMI 1640 medium containing 10% FBS, 25 U/ml penicillin, […] streptomycin and 50 μM mercaptoethanol in an atmosphere of 5% CO2 in air, at 37° C. for 2-5 days before recording.\n(§2) β-cells Electrophysiological recording—The whole-cell recordings were carried out by the standard “giga-seal” patch clamp technique (Hamill et al.). The whole-cell recording pipettes were made of hemocapillaries (Warner), pulled by a two-stage puller (PC-10, Narishige International, New York, N.Y.), and heat polished with a microforge (MF200-1, World Precision Instruments, Sarasota, Fla.) before use. Pipette resistance was in the range of 2-5 MΩ in the internal solution. The recordings were performed at room temperature (22-25° C.). Currents were recorded using an EPC-9 patch-clamp amplifier (HEKA) and filtered at 2.9 kHz. Data were acquired with Pulse/PulseFit software (HEKA). Voltage-dependent currents were corrected for linear leak and residual capacitance by using an on-line P/n subtraction paradigm.\n(§3) Solutions—The extracellular solution used in whole-cell Ca^2+ current recording contained (in mM): 10 CaCl21 110 tetraethylammonium-Cl (TEA-Cl), 10 CsCl, 10 N-2-hydroxyethylpiperazine-N′-2-ethanesulfonic acid (HEPES), 40 sucrose, 0.5 3,4-diaminopyridine, pH 7.3. The intracellular solution contained (in mM): 130 N-methyl-D-glucamine, 20 EGTA (free acid), 5 bis (2-aminophenoxy) ethane-N,N,N′,N′-tetraacetate (BAPTA), 10 HEPES, 6 MgCl2, 4 Ca(OH)2/pH was adjusted to 7.4 with methanesulfonate. 2 mM Mg-ATP was included in the pipette solution to minimize rundown of L-type Ca^2+ currents. For Perforated-patch recording, the extracellular solution contained (in mM): 26 Sucrose, 30 TEA-Cl, 10 HEPES, 5 KCl, 2 CaCl2, MgCl2, pH 7.3. The pipette solution contained (in mM): 65 CsOH, 65 CsMS, 20 sucrose, 10 HEPES, 10 MgCl2, 1 Ca(OH)2, pH 7.4.\n(§4) The T-type Ca^2+ current was measured at −30 mV when the membrane was held at −90 mV and the L-type current was measured at +20 mV when the membrane was held at −40 mV. The currents were measured twice at each concentration of mibefradil with 2 min in between measurements.\n(§5) A drug diffusing system was then used to test the reversibility of the antagonism of T- and L-type Ca^2+ currents by mibefradil. Small volumes (approximately 2 μl) of drugs were delivered in close proximity to the recording cell with a quartz capillary positioned by a micromanipulator. After administration, drugs diffused throughout the entire recording chamber containing 2 ml of bath solution. This drug diffusing system was used to test the reversibility of 30 μM of NiCl2 on the T-type Ca^2+ currents (FIG. 4).\nThis hypothesis was tested by applying a very low dose of mibefradil on cells and recording the L-type Ca^2+ currents for a long time in the perforated patch-clamp configuration."}, "[2]": {"tested_on": "β-TC3 cells", "test": "Cytokine-induced DNA fragmentation in β-TC3 cells", "type": "cell-based, mouse", "conditions": "β-TC3 cells (n=2); same results in NIT-1 cells (n=3)"}, "[3]": {"biological_target": "T-type Ca^2+ current (Rattus norvegicus, UniProt O54898)", "sequence (O54898 whole entry)": "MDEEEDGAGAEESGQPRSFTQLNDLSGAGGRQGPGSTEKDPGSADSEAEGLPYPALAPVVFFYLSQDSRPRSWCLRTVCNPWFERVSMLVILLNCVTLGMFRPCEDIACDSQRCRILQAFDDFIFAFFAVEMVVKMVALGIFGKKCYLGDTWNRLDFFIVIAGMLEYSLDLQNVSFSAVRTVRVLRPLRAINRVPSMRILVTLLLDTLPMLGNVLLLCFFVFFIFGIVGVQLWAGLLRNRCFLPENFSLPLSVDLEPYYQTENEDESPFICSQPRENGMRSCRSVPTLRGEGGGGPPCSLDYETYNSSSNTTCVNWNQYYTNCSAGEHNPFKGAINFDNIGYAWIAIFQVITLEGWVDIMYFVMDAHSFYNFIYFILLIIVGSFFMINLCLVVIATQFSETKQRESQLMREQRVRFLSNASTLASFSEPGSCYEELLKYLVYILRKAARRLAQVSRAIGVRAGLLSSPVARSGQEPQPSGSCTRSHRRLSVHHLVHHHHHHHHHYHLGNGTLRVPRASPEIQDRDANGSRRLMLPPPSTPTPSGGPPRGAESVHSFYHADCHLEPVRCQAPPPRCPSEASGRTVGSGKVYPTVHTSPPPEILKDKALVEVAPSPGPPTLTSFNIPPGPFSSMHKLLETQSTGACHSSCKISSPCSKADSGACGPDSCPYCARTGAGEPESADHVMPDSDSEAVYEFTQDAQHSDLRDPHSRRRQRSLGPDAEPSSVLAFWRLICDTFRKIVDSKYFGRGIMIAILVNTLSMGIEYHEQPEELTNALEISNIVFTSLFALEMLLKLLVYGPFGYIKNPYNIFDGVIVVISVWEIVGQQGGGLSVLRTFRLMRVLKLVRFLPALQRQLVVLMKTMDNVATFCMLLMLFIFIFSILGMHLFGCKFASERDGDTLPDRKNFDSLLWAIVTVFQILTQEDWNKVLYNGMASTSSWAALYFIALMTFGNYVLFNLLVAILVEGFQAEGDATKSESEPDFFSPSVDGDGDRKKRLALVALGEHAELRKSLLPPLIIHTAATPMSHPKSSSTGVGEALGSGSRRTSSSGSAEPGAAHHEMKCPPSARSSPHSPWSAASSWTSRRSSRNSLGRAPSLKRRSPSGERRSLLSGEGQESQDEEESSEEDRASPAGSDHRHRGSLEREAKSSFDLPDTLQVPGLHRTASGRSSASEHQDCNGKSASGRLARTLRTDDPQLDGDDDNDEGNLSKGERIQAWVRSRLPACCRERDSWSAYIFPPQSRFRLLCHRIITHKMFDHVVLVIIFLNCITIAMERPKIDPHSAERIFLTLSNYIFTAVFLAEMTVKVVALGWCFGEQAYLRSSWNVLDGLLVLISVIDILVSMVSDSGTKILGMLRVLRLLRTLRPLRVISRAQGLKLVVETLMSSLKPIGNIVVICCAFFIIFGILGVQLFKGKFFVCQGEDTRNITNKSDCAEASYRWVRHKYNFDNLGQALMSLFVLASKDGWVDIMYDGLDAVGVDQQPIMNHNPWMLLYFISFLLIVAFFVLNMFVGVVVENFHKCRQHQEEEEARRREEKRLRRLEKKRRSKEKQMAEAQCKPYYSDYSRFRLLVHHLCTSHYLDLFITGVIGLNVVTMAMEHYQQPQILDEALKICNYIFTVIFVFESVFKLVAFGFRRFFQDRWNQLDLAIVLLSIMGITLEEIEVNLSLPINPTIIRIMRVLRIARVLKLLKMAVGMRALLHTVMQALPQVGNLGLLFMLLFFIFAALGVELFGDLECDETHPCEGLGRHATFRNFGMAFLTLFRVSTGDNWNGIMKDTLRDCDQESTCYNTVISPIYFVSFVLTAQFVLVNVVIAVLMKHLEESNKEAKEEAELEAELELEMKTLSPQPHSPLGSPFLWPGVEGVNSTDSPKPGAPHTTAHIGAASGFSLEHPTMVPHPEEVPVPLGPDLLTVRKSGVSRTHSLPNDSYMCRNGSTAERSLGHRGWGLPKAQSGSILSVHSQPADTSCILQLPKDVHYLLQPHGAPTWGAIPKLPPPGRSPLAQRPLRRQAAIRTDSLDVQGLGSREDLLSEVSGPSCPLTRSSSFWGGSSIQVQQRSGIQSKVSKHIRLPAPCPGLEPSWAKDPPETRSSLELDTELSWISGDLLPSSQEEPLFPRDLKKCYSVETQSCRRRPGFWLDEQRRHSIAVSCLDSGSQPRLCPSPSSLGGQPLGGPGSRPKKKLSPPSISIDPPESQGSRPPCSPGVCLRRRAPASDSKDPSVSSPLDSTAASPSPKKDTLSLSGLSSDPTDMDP", "test": "Patch clamp recording of T-type Ca^2+ current in insulin-secreting (INS-1) cells", "type": "cell-based", "conditions": "drug diffusing system", "procedure": "as §1, §2, §3, §4, §5"}, "[4]": {"tested_on": "NIT-1 cells", "test": "Spontaneous elevation of [Ca^2+]i in NIT-1 cells, Fluo-3 fluorescent imaging", "type": "cell-based, mouse", "conditions": "10 μM, 3.3 mM glucose, 10 minute observation", "procedure": "NIT-1 cells were cultured in medium containing 3.3 mM glucose and preloaded with 2.5 μM Fluo-3 μM. The numbers of spontaneous calcium elevated cells were counted and compared to the total cells being used for a 10 minute observation period. 10 μM NiCl2 inhibited 90% of spontaneous elevation of basal Ca^2+."}, "[5]": {"tested_on": "INS-1 cells", "test": "Transient spontaneous calcium spikes in a single INS-1 cell, epi-fluorescence", "type": "cell-based, rat", "conditions": "30 μM, bath solution without glucose", "description": "The cellular mechanism of the spontaneous elevation of intracellular Ca^2+ was investigated with the epi-fluorescence measurement method. […] The Role of T-type Ca^2+ channels in this spontaneous process was examined as well. […] These spontaneous calcium spikes may contribute to basal insulin secretion and control of basal [Ca^2+]i."}, "[6]": {"tested_on": "INS-1 cells", "test": "Action potentials (excitability) of INS-1 cells", "type": "cell-based, rat", "conditions": "100 μM", "procedure": "Particularly, activation of T type Ca^2+ channels will increase the firing frequency of the depolarizing spikes mediated by opening L type Ca^2+ channels (FIG. 19A). Activation of T type Ca^2+ channel will also decrease the time of developing action potential elicited by up-threshold depolarizations (FIG. 19B).\nTo further establish that T type Ca^2+ current enhances β-cells excitability, 100 μM NiCl2 was administered to effectively block T type Ca^2+ channels."}, "[7]": {"tested_on": "INS-1 cells", "test": "Glucose-induced insulin secretion in INS-1 cells", "type": "cell-based, rat", "conditions": "11.1 mM glucose, variable concentrations of NiCl2"}, "[8]": {"tested_on": "HIT-T15", "test": "Glucose-induced insulin secretion in HIT-T15 cells", "type": "cell-based", "conditions": "11.1 mM glucose, variable concentrations of NiCl2"}, "[9]": {"tested_on": "LVA Ca^2+ current", "test": "Cytokine-induced LVA Ca^2+ current in primary cultured mouse islet cells", "type": "cell-based", "conditions": "10 μM; IL-1β 25 U/ml and IFNγ 300 U/ml for 6 h; n=4", "procedure": "The effects of chronic cytokine treatment on the voltage-sensitive Ca^2+ currents in primary cultured mouse islet cells was examined. After treatment with IL-1β (25 U/ml) and IFNγ (300 U/ml) for 6 h, an LVA Ca^2+ current was induced in these cells (FIG. 23A). This current was present in 48% of cytokine-treated mouse islet cells. No such current was observed when the cells were treated with either IL-1β or IFNγ alone. […] This LVA current has not been observed in non-treated cells. […] It has been reported that low concentration of NiCl2 selectively block LVA current, a profound […] in Ca^2+ current density was observed over the voltages between −20 and 20 mV."}, "[10]": {"tested_on": "mouse islet cells", "test": "Cytokine-induced increase in basal [Ca^2+]i in primary cultured mouse islet cells", "type": "cell-based", "conditions": "10 μM; IL-1β 25 U/ml and IFNγ 300 U/ml for 6 h", "description": "LVA Ca^2+ channels are activated at low membrane potentials. This unique feature may allow then to regular [Ca^2+]i under nonstimulatory conditions. Indeed, basal [Ca^2+]i in cytokine-treated cells was approximately 3-fold higher than in nontreated cells (FIG. 24A)."}, "[11]": {"tested_on": "β-TC3 cells", "test": "Cytokine-induced cell death in β-TC3 cells", "type": "cell-based, mouse", "conditions": "NiCl2 20 μM, nifedipine 10 μM; IL-1β 25 U/ml, IFNγ 100 U/ml, TNFα 100 U/ml", "description": "The function of LVA Ca^2+ channels in cytokine-mediated cell death in β-TC3 cells was then examined."}, "[12]": {"tested_on": "INS-1 cells", "test": "Basal [Ca^2+]i in INS-1 cells by fura-2 fluorescence", "type": "cell-based, rat", "conditions": "5 mM for 1 hour, followed by 3 hour recovery", "procedure": "[Ca^2+]i was directly measured by the ratio of fluorescence excitations at Ca^2+-bound […], and then the ratio was converted to the calcium concentration. The bath solution contained […], 4 mM KCl, 2 mM CaCl2, and 2 mM MgCl2.\nThe effect of basal [Ca^2+]i on Ca^2+ influx was examined using the Ca^2+ dye indicator fura-2 and fluorescence measurements. Voltage-dependent Ca^2+ influx in a single cell was obtained by perfusion of an osmotically balanced solution containing 50 mM KCl into the recording chamber. […] The resting basal [Ca^2+]i in INS-1 cells was approximately 60-80 nM under the experimental conditions. [Ca^2+]i was determined by a standard curve obtained from a fura-2 calcium imaging kit (Molecule Probes). The empirical Kd obtained for calcium binding to fura-2 in the system was 296±20 nM. When basal [Ca^2+]i remains low, subsequent voltage stimulation with 50 KCl induces rapid and large calcium influx into the cell and these calcium changes are stereotyped upon repetitive stimulation when basal calcium is restored (FIG. 10). In this experiment, following the 50 KCl depolarization, the cell was repolarized by perfusion of the original 5 mM KCl solution. After repolarization, basal [Ca^2+]i slowly reset and then a second 50 KCl depolarization induced a similar [Ca^2+]i transient. When the basal calcium is not allowed to reset, a defect in the second voltage induced calcium transient occurs (FIG. 11). […] Therefore effectors of basal [Ca^2+]i will have important impact on the amount of calcium that can enter the cell."}},
  "note": "Entries after “also recorded” stand apart in the source; their conditions may differ.",
  "data": [
    {"smiles": "CC(C)[C@H]1c2ccc(F)cc2CC[C@]1(O)CCN(C)CCCc1nc2ccccc2[nH]1.Cl", "note": "[dm-mibefradil, (1S,2S)-2-[2-[[3-(2-Benzimidazolyl)propyl]methylamino]ethyl]-6-fluoro-1,2,3,4-tetrahydro-1-isopropyl-2-napthyl hydroxy hydrochloride]", "values": [
      {"measurement": "effect on L-type Ca^2+ current from inside of cells", "setting": "[1]", "value": "specifically blocked"}
    ]},
    {"smiles": "N=C(N)NC(=O)c1nc(Cl)c(N)nc1N", "note": "[amiloride]", "values": [
      {"measurement": "effect on cytokine-induced DNA fragmentation", "setting": "[2]", "value": "prevented cytokine-induced DNA fragmentation"}
    ]},
    {"smiles": "[Cl][Ni][Cl]", "note": "[NiCl2]", "values": [
      {"measurement": "amplitude of T-type current after drug delivery, % of initial level", "setting": "[3]; about 2 μl of 30 μM delivered near the cell, rapid reduction", "value": 40, "unit": "%"},
      {"measurement": "amplitude of T-type current after recovery, % of initial level", "setting": "[3]; about 2 μl of 30 μM, within 3 minutes", "value": 80, "unit": "%"},
      {"measurement": "reversibility of the inhibition of T-type Ca^2+ current", "setting": "[3]; small volume delivered near the cell", "value": "reversibly block T type Ca^2+ current"},
      {"measurement": "inhibition of spontaneous elevation of basal Ca^2+", "setting": "[4]", "value": 90, "unit": "%"},
      {"measurement": "frequency of spontaneous calcium spikes", "setting": "[5]", "value": "reduced the frequency of spontaneous calcium spikes immediately; also recorded: reduced the frequency of transient spontaneous elevation of [Ca^2+]i"},
      {"measurement": "onset and number of action potentials", "setting": "[6]", "value": "a delay in the onset of an action potential and a decrease in number of action potentials"},
      {"measurement": "insulin secretion", "setting": "[7]", "value": "reduced insulin secretion in a dose-dependent manner"},
      {"measurement": "insulin secretion", "setting": "[8]", "value": "not affected"},
      {"measurement": "block of cytokine-induced LVA Ca^2+ current", "setting": "[9]", "value": "blocked"},
      {"measurement": "effect on cytokine-induced increase in basal [Ca^2+]i", "setting": "[10]", "value": "blocked; also recorded: prevented the increase in [Ca^2+]i"},
      {"measurement": "effect on cytokine-induced DNA fragmentation", "setting": "[2]", "value": "prevented cytokine-induced DNA fragmentation"},
      {"measurement": "effect on cytokine-induced cell death", "setting": "[11]", "value": "effectively reduced the β-cells killing potency of cytokines; also recorded: significantly reduced cell death"}
    ]},
    {"smiles": "CN(N=O)C(=O)N[C@H]1C(O)O[C@H](CO)[C@@H](O)[C@@H]1O", "note": "(mixture of isomers) [streptozotocin]", "values": [
      {"measurement": "calcium influx on stimulation by 50 KCl", "setting": "[12]", "value": "reduced calcium influx compared to control cells"},
      {"measurement": "change in basal calcium", "setting": "[12]", "value": "two-fold increase in basal calcium"}
    ]}
  ]
}
